Data reported in patent US20260240820A1, “METHOD FOR CONTROLLING MEMBRANE POTENTIAL-DEPENDENT ION CHANNEL THROUGH TYPE I TASTE RECEPTORS (T1RS)” (ION CHAT RESEARCH CORPORATE, priority 2022, published 2026).
“Also recorded” adds a separate entry of the source. Read-outs that look alike come from different tables or passages of the source.

How the values were obtained:
[1] = tested on: Nav1.5; assay: Patch-clamp (voltage clamp) recording of VGSC current in HEK cells stably expressing Nav1.5; details: for Effect on VGSC current: 0.4 μM to […]
[2] = tested on: VGSC; assay: Patch-clamp recording of VGSC current, cell type not specified or several cell types (summary statements); assay type: cell-based, human

COc1ccc(OC(C)C(=O)O)cc1 (centres unmarked) [Lactisole]
Effect on VGSC enhanced by Aβ25-35 ([1]; 1-1.5 mM): inhibits the enhancing effect of Aβ25-35 on VGSC; also recorded: recovered to the size of VGSC recorded in the control | Effects on VGSCs [2]: Inhibition of VGSCs

OC[C@H]1O[C@@](CO)(O[C@H]2O[C@H](CO)[C@@H](O)[C@H](O)[C@H]2O)[C@@H](O)[C@@H]1O [Sucrose]
Effects on VGSCs [2]: Inhibition of VGSCs

NCCCC(=O)O [GABA, γ-aminobutyric acid]
Effect on VGSC current enhanced by Aβ42/40 (AD-D) ([1]; applied after Aβ42/40 (AD-D)): no effects similar to β-alanine were observed

CC(=O)O[C@H]1C(=O)[C@@]2(C)[C@H]([C@H](OC(=O)c3ccccc3)[C@]3(O)C[C@H](OC(=O)[C@H](O)[C@@H](NC(=O)c4ccccc4)c4ccccc4)C(C)=C1C3(C)C)[C@]1(OC(C)=O)CO[C@@H]1C[C@@H]2O [Taxol]
Effect on VGSC current [1]: VGSC enhancement was observed | Effect on VGSC current ([1]; listed as Paclitaxel (Taxol)): enhances HEK Nav1.5 cell VGSC | Effects on VGSCs [2]: Enhances VGSC

Brc1c(Br)c(Br)c2[nH]nnc2c1Br [TBB, 4,5,6,7-tetrabromobenzotriazole]
Effect on VGSC current amplitude [1]: reduced the amplitude of VGSC current | Shift of steady-state inactivation (S-S) curve of VGSC [1]: shifted gradually to the left; also recorded: significantly shifts in the hyperpolarizing direction | Suppression of VGSC current ([1]; 10 μM, prepulse −80 mV, test pulse −20 mV): almost completely suppressed | Suppression of VGSC current ([1]; 10 μM, prepulse −100 mV): about half suppressed | VGSC current unaffected ([1]; 10 μM, prepulse −120 mV): more than 80% | VGSC current inhibition ([1]; minimum concentration (printed 30 μM), preceding pulse −80 mV): nearly complete VGSC current inhibition | Suppression of VGSC current ([1]; prepulse −120 mV, at the used TBB concentration): about 50% | IC50 ([1]; read-out: IC50 from difference in Vh of steady-state inactivation curve (Hill equation)): 12.9 µM | IC50 ([1]; read-out: IC50 of inhibition of VGSC current (INa, step −100 mV to −20 mV, Hill plot), prepulse −100 mV): 15.8 µM | Shift of steady-state inactivation (S-S) curve of VGSC [2]: shifted to the hyperpolarizing direction even at control recordings.

NCCCC[C@H](N)C(=O)O [lysine]
Effect on VGSC inactivation [2]: delay VGSC inactivation

N[C@@H](CC(=O)O)C(=O)O [aspartic acid]
Effect on VGSC inactivation [2]: delay VGSC inactivation

OC[C@H]1OC(O)[C@H](O)[C@@H](O)[C@@H]1O (some centres unmarked) [Glucose]
Effects on VGSCs ([2]; <10 mM): Enhancement of VGSC | Effects on VGSCs ([2]; >20 mM): Inhibition of VGSCs

N[C@@H](CO)C(=O)O [L-Serin, L-serine]
Effects on VGSCs [2]: Enhancement of VGSC | Effect on VGSC current ([2]; 2.5 mM): Enhances VGSC currentat 2.5 mM

COc1cc2c(c(OC)c1OC)-c1ccc(OC)c(=O)cc1[C@@H](NC(C)=O)CC2 [Colchicine]
Effects on VGSCs [2]: Enhances VGSC | VGSC current amplitude ([2]; 2.25 μM, at −40 mV): nearly doubled

C/C1=C/C(=O)O[C@@H]2C[C@@H](CC[C@H](C)/C=C\C=C\CC1)O[C@@](O)([C@@H]1CSC(=O)N1)C2 [Latrunculin A]
Effects on VGSCs [2]: reduces VGSC | Shift of steady-state inactivation (S-S) curve of VGSC [2]: shifting the S-S curve toward hyperpolarization | Effect on VGSC current ([2]; 12.6 μM): shifted the VGSC current toward hyperpolarization and inhibited it | Effect on VGSC current ([2]; 12.6 μM, listed as LatA): significantly inhibits VGSC current
